Measured values taken from patent US8362031B2, “Lonidamine analogues and treatment of polycystic kidney disease” (University of Kansas, priority 2004, dated 2013).
Several values for one entry are separate records, joined by “and”; a condition that tells them apart may be missing. Equal values may be shown once. Entries after “also recorded” stand apart in the source; their conditions may differ. Read-outs that look alike come from different tables or passages of the source.

Assays:
Male Long Evans rats [1] = test: In vivo antispermatogenic testing in Long Evans rats; conditions: for Response 200 mg/kg: 200 mg/kg single i.p. injection
Male Long Evans rats [2] = conditions: rat, in vivo, 5 days
rats = test: Toxicology: organs sectioned and examined after dosing; format: in vivo; conditions: 25 mg/kg, two animals examined, findings per animal
Description: In at least two of the animals in each group, the pancreas, right kidney and part of the liver, heart, spleen, and lung were removed and evaluated for toxic effects.
The toxicology of animals receiving some of the compounds of the present invention IP and/or oral was examined. At the time of sacrifice samples of liver, pancreas, heart, lung, spleen and kidney were removed, visually inspected, and immersion fixed in Bouin's solution for a minimum of 48 hours. All organs were then sectioned and examined for evidence of necrosis, inflammation, hemorrhage, and possible tumors. The major veins in each tissue were also examined for distention, especially in the liver and pancreas, and any other abnormalities are compared to known histopathological states. In addition to the above, the heart was examined for evidence of fibrosis in the muscular walls, and to compare the thickness of the ventricular walls. The pancreas was examined mainly for calcium deposits, while the lung was checked for signs of any exudates or hemorrhage, especially in the alveolar spaces. Finally, the kidney was examined mainly for microscopic hemorrhages, tubular necrosis or alterations in the glomeruli in the cortex.
In this example, the effects of RC-MC-30 were compared with those of lonidamine in sexually mature rats. As discussed above, each of the rats (8 total) received a single injection and were sacrificed five days after injection and examined.

fruitfly = test: Reproduction of fruitfly; format: in vivo, Drosophila (fruitfly); conditions: provided to a fruitfly
Source text: Several known Hsp90 inhibitors are listed above. With regard to HSP90, RC-MC-110 likely a novel inhibitor of the N-terminal ATP binding site or a novel site on Hsp90. It should be noted that mutants of Hsp90 in Drosophila (fruitfly) produce sterile males and females. […] Genetics. 1999 March; 151(3):1065-79.

[3] = test system: M-1 Clone 20; human primary cyst epithelial cells (ADPKD cells); test: MTT cell proliferation assay with cAMP (FIGS. 9A-9B); format: cell-based; conditions: 48 hours
Description: Various compounds were tested for their effects on cell proliferation. In the study, the cell types were M-1 Clone 20, which is an immortalized cell line that mimics PKD, and human primary cyst epithelial cells, or ADPKD cells. The compounds were tested at 1 μM to 100 μM concentrations.
M-1 clone 20 (“M1 Clone 20”) cells are a model of PKD-like cells, which were created by stably transfecting parental “normal” M-1 immortalized renal cortical collecting duct cells with the C-terminal cytosolic domain (or C-tail) of mouse polycystin-1 (the protein product of the Pkd1 gene. The overexpressed C-tail acts in a dominant-negative fashion, conferring the PKD phenotype to these cells. Their characterization is described in: Sutters, M., Yamaguchi, T., Maser, R. L., Magenheimer, B. S., St. John, P. L., Abrahamson, D. R., Grantham, J. J. and Calvet, J. P. (2001) Polycystin-1 transforms the cAMP growth-responsive phenotype of M-1 cells. Kidney Int. 60, 484-494.
FIGS. 9A-9B include graphs that show cells grown in the vehicle (i.e. DMSO at two different volumes of 1 uL and 5 uL respectively), cAMP only, and then under the treatment drugs, all of which also had cAMP in them. The comparison drug used was 10 uM of gamendazole. […] Absorbance is a measure of cell number.
The comparison drug used was 10 uM Gamendazole. The MTT cell proliferation assay was carried out to assess cell number—cell proliferation is essentially cell number. […] Thus, absorbance is a measure of cell number, or cell proliferation. The reference bar is the third bar from the left (cAMP)—the degree of inhibition should be compared to that bar.

[4] = test system: Salmonella Typhimurium TA 100; test: Ames test for mutagenicity (plate assay, colony count); conditions: 48 hours at 37° C.
[5] = animals responding out of animals surviving, five days following injection

O=C(O)c1nn(Cc2ccc(Cl)cc2Cl)c2ccccc12 [Lonidamine, 1-(2,4,-dichlorobenzyl)-1H-indazole-3-carboxylic acid]
Response 25 mg/kg (Male Long Evans rats [1]; 25 mg/kg single i.p. injection, animals responding out of animals surviving, five days following injection): 2/5
Response 200 mg/kg (Male Long Evans rats [1]; [5]): 5/5
Mortality (25 mg/kg) (Male Long Evans rats [2]): 0/5
Mortality (200 mg/kg) (Male Long Evans rats [2]): 0/5
Toxicology: liver, lung, pancreas, spleen, heart and kidney (histology) (rats): liver, lung, pancreas, spleen, heart and kidney all appeared normal
Reproduction of fruitfly (fruitfly): inhibited reproduction

O=C(O)/C=C/c1nn(Cc2ccc(Cl)cc2Cl)c2cc(Cl)ccc12 [JWS-1-190, 3-[1-(2,4-dichlorobenzyl)-6-chloro-1H-indazol-3-yl]-acrylic acid]
Inhibition of cell proliferation (MTT absorbance) ([3]; 10 uM): very effective
Inhibition of cell proliferation (MTT absorbance) ([3]; 25 uM): quite effective in inhibiting cell proliferation
Ames test (+)S9 0.1 mg/pl. ([4]; (+)S9 mix, 0.1 mg/pl.): Pass
Ames test (+)S9 1 mg/pl. ([4]; (+)S9 mix, 1 mg/pl.): Pass
Ames test (+)S9 10 mg/pl. ([4]; (+)S9 mix, 10 mg/pl.): Pass
Ames test (−)S9 0.1 mg/pl. ([4]; (−)S9 mix, 0.1 mg/pl.): Pass
Ames test (−)S9 1 mg/pl. ([4]; (−)S9 mix, 1 mg/pl.): Pass
Ames test (−)S9 10 mg/pl. ([4]; (−)S9 mix, 10 mg/pl.): Pass
Mortality (25 mg/kg) (Male Long Evans rats [1]; 25 mg/kg single i.p. injection, […]): 0/5
Response 200 mg/kg (Male Long Evans rats [1]; [5]): 0/0 and 2/5
Toxicology: liver, lung, pancreas, spleen, heart and kidney (histology) (rats): The lung did have multiple, scattered hemorrhagic patches in the alveolar clusters; also recorded: liver, lung, pancreas, spleen, heart and kidney all appeared within normal limits
